According to patent publication US9200011B2, “Ring constrained analogs as arginase inhibitors” (Mars, Incorporated, priority 2012, dated 2015):

Key:
[1] = target: T1, human arginase I (ARG I) (Homo sapiens, UniProt P05089); assay: Inhibition of arginase I, spectrophotometric urea assay at 530 nm; type: biochemical; details: potency rank 1-5; pH 7.4, 37° C., 60 minutes
T1 sequence (P05089 1-322): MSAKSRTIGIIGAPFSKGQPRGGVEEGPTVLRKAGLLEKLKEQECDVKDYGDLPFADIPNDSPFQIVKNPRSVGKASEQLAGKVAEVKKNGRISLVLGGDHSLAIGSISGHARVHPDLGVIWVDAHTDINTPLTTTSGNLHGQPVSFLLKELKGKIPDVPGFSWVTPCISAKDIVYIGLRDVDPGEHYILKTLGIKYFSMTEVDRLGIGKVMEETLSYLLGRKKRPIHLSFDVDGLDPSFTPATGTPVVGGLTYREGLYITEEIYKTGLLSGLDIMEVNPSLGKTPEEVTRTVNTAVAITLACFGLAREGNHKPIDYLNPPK
Procedure: (§1) The assay established the concentration of inhibitor that is required to reduce arginase activity by 50% (IC50).
(§2) Inhibition of arginase I (ARG I) and arginase II (ARG II) by the inventive compounds is followed spectrophotometrically at 530 nm. The compound to be tested is dissolved in DMSO at an initial concentration 50-fold greater than its final concentration in the cuvette. 10 μl of the stock solution is diluted in 90 μl of the assay buffer that comprises 0.1M sodium phosphate buffer containing 130 mM NaCl, pH 7.4, to which is added ovalbumin (OVA) at a concentration of 1 mg/ml. Solutions of arginase I and II are prepared in 100 mM sodium phosphate buffer, pH 7.4 containing 1 mg/ml of OVA to give an arginase stock solution at a final concentration of 100 ng/ml.
(§3) To each well of a 96-well microtiter plate is add 40 μl of enzyme, 10 μl of an inventive compound and 10 μl of enzyme substrate (L-arginine+manganese sulfate). For wells that are used as positive controls, only the enzyme and its substrate are added, while wells used as negative controls contain only manganese sulfate.
(§4) After incubating the microtiter plate at 37° C. for 60 minutes, 150 μl of a urea reagent obtained by combining equal proportions (1:1) of reagents A and B is added to each well of the microtiter plate to stop the reaction. The urea reagent is made just before use by combining Reagent A (10 mM o-phthaldialdehyde, and 0.4% polyoxyethylene (23) lauryl ether (w/v) in 1.8 M sulfuric acid) with Reagent B (1.3 mM primaquine diphosphate, 0.4% polyoxyethylene (23) lauryl ether (w/v), 130 mM boric acid in 3.6 M sulfuric acid). After quenching the reaction mixture, the microtiter plate is allowed to stand for an additional 10 minutes at room temperature to allow color development. The inhibition of arginase is computed by measuring the optical density (OD) of the reaction mixture at 530 nm and normalizing the OD value to percent inhibition observed in the control. The normalized OD is then used to generate a dose-response curve by plotting the normalized OD values against log [concentration] and using regression analysis to compute the IC50 values.

[2] = target: T2, arginase II (ARG II) (Homo sapiens, UniProt P78540); assay: Inhibition of arginase II, spectrophotometric urea assay at 530 nm; type: biochemical; details: potency rank 1-5; pH 7.4, 37° C., 60 minutes
T2 sequence (P78540 23-354): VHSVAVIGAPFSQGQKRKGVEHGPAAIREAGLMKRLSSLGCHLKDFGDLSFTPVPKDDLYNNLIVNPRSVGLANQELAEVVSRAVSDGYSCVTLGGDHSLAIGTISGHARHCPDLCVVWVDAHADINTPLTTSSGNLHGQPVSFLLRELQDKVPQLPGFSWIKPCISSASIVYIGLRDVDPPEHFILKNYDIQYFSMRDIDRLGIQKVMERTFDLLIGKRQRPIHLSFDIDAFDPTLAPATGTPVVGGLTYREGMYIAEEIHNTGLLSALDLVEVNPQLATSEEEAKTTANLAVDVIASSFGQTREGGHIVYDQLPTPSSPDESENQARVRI
Procedure: as §1, §2, §3, §4

[3] = tested on: tumor bearing mice; details: cited from earlier work
[4] = tested on: bacterial arginase; details: cited from earlier work
[5] = tested on: murine chronic model; details: murine chronic asthma model; cited from earlier work
[6] = tested on: animals undergoing experimental autoimmune encephalomyelitis (EAE); details: mouse, in vivo; cited from earlier work
[7] = tested on: spontaneously hypertensive rats; details: cited from earlier work

| Structure (SMILES) | IC50 [1] [µM] | IC50 [2] [µM] | also measured |
| --- | --- | --- | --- |
| N[C@@]1(C(=O)O)CCC[C@@H]1CCCB(O)O [Example 8, (1S,2S)-1-amino-2-(3-boronopropyl)cyclopentanecarboxylic acid] | 0.101 to 0.5 | 0.101 to 0.5 |  |
| N[C@@]1(C(=O)O)C[C@@H](CN(C2CCC2)C2CCC2)C[C@@H]1CCCB(O)O [Example 6, (1S,2S,4S)-1-amino-2-(3-boronopropyl)-4-((dicyclobutylamino)methyl)cyclopentanecarboxylic acid] | 0.101 to 0.5 | 0.101 to 0.5 |  |
| N[C@@]1(C(=O)O)CNC[C@@H]1CCCB(O)O [Example 9, (3R,4S)-3-amino-4-(3-boronopropyl)pyrrolidine-3-carboxylic acid] | 0.101 to 0.5 | 0.101 to 0.5 |  |
| CN[C@@]1(C(=O)O)CCC[C@@H]1CCCB(O)O [Example 7, (1S,2S)-2-(3-boronopropyl)-1-(methylamino) cyclopentanecarboxylic acid] | 0.501 to 1.5 | 0.501 to 1.5 |  |
| N[C@@]1(C(=O)O)C[C@@H](CNC2Cc3ccccc3C2)C[C@@H]1CCCB(O)O [Example 3, (1S,2S,4S)-1-amino-2-(3-boronopropyl)-4-(((2,3-dihydro-1H-inden-2-yl)amino)methyl)cyclopentanecarboxylic acid] | 0.026 to 0.1 | 0.101 to 0.5 |  |
| N[C@@]1(C(=O)O)C[C@@H](CNC2CCc3ccccc3C2)C[C@@H]1CCCB(O)O (stereo partly drawn) [Example 4, (1S,2S,4S)-1-amino-2-(3-boronopropyl)-4-(((1,2,3,4-tetrahydronaphthalen-2-yl)amino)methyl)cyclopentanecarboxylic acid] | 0.026 to 0.1 | 0.026 to 0.1 |  |
| N[C@@]1(C(=O)O)C[C@@H](CNCc2ccc(-c3ccc(Cl)cc3)cc2)C[C@@H]1CCCB(O)O [Example 2, (1S,2S,4S)-1-amino-2-(3-boronopropyl)-4-((((4′-chloro-[1,1′-biphenyl]-4-yl)methyl)amino)methyl)cyclopentanecarboxylic acid] | 0.026 to 0.1 | 0.026 to 0.1 |  |
| Nc1ccn([C@@H]2O[C@H](CO)[C@@H](O)C2(F)F)c(=O)n1 [gemcitabine] |  |  | MDSC immunesuppression [3]: eliminates; tumor growth [3]: delayed tumor growth |
| O=c1[nH]cc(F)c(=O)[nH]1 [5-Fluorouracil] |  |  | MDSC immunesuppression [3]: eliminates; tumor growth [3]: delayed tumor growth |
| N[C@@]1(C(=O)O)C[C@@H](CNCc2ccccc2)C[C@@H]1CCCB(O)O [Example 1, (1S,2S,4S)-1-amino-4-((benzylamino)methyl)-2-(3-boronopropyl)cyclopentanecarboxylic acid] | 0.026 to 0.1 | 0.026 to 0.1 |  |
| NC(=NCCC[C@H](N)C(=O)O)NO [NOHA] |  |  | CD3 expression on T-cells [4]: reestablished; production of NO by macrophages [4]: enhanced |
| N[C@@H](CSCCB(O)O)C(=O)O [S-(2-boronoethyl)-L-cysteine] |  |  | methacholine induced responsiveness of the central airways [5]: attenuated |
| NC(CCCCB(O)O)C(=O)O (stereo not shown) [ABH, amino-6-boronohexanoic acid] |  |  | severity of EAE versus control animals [6]: much milder form of EAE |
| N[C@@]1(C(=O)O)C[C@@H](CNC2CCC2)C[C@@H]1CCCB(O)O [Example 5, (1S,2S,4S)-1-amino-2-(3-boronopropyl)-4-((cyclobutylamino)methyl)cyclopentanecarboxylic acid] | 0.026 to 0.1 | 0.101 to 0.5 |  |
| N=C(NO)NCC[C@H](N)C(=O)O [nor-NOHA, N^ω-hydroxy-nor-L-arginine] |  |  | vascular response of resistance vessels to blood flow and pressure ([7]; spontaneously hypertensive animals): improved; blood pressure ([7]; spontaneously hypertensive rats/animals): lowered blood pressure |
